Data published in patent publication US20250188092A1, “RIFAMYCIN ANALOGS” (THE REGENTS OF THE UNIVERSITY OF MICHIGAN, priority 2021, published 2025).
Like-named read-outs stand apart in the source and are kept apart here.

Columns and labels:
E. coli WT RNAP = biological target: T1, E. coli WT RNAP (Escherichia coli, UniProt P0A8V2); assay: biochemical
T1 construct: made in house

[1] = biological target: T2, E. coli D516V (RIF^R) RNAP (Escherichia coli, UniProt P0A8V2, D516V); assay: biochemical
T2 construct: made in house

[2] = biological target: T3, E. coli S531L (RIF^R) RNAP (Escherichia coli, UniProt P0A8V2, S531L); assay: biochemical
T3 construct: made in house

VERO cells (ATCC CRL-81) = assay: Vero cell toxicity; format: cell-based; details: 72 hours exposure
Description: Cytotoxicity for a mammalian cell line was determined by exposing VERO cells (ATCC CRL-81) to serial dilutions of test compounds for 72 hours, followed by addition of resazurin and measurement of fluorescence after 4 hours incubation (Choules, et al., Antimnicrob. Agents Chemother. 2019, 63, e02204-02218).

MTB H37Rv ATCC 27294 = assay: MIC, microplate Alamar Blue assay (MABA); format: cell-based, Mycobacterium tuberculosis; details: for MIC / MIC90: MTB H37Rv ATCC 27294, microplate Alamar Blue assay, lowest concentration giving ≥90% reduction in fluorescence; for MIC: read-out: MIC90 MABA
M. tuberculosis H37Rv = assay: Minimum bactericidal concentration (MBC, CFU Assay); format: cell-based, Mycobacterium tuberculosis; details: for MBC99 Day 7 (CFU Assay) MBC99 Rel to RMP: CFU Assay MBC99 relative to rifampin (RMP = 1); for MBC: Mycobacterium tuberculosis, 168 h, Day 7, M. tuberculosis H37Rv, ≥99% reduction in colony forming units, read-out: MBC99 Day 7 (CFU Assay) MBC99
[3] = biological target: T4, human pregnane X receptor (hPXR) (Homo sapiens, UniProt O75469)
T4 sequence (O75469 1-434): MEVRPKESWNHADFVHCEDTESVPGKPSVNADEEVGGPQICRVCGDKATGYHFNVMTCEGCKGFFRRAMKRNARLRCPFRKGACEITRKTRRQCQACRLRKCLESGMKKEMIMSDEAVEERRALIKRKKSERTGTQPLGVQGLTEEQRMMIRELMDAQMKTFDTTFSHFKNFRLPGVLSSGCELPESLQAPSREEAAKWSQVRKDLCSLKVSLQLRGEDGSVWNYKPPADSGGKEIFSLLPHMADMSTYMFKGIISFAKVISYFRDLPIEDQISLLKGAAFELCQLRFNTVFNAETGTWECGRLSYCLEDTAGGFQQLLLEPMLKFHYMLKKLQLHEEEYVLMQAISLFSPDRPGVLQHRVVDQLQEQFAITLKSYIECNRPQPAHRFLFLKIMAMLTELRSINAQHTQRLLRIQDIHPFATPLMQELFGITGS

WT MTB RNAP = biological target: T5, WT MTB RNAP (Mycobacterium tuberculosis, UniProt P9WGY9); format: biochemical; details: lower limit of detection ~5 nM
T5 construct: made in house; host or cells: E. coli BL21(DE3)

Compound | IC50 (E. coli WT RNAP) [µM] | IC50 [1] [µM] | IC50 [2] [µM] | IC50 (VERO cells (ATCC CRL-81); Chlorocebus sabaeus, Vero) [µM] | MIC90 MABA Rel to RMP (MTB H37Rv ATCC 27294) | MIC (MTB H37Rv ATCC 27294; Mycobacterium tuberculosis) [µM] | MBC99 Day 7 (CFU Assay) MBC99 Rel to RMP (M. tuberculosis H37Rv) | MBC (M. tuberculosis H37Rv) [µM] | DPX2 Viability @ 6.25 μM (DPX2 cells; 6.25 μM, 24 h) [%] | DPX2 Viability @ 25 μM (DPX2 cells; human) [%] | MIC90 (MTB H37Rv ATCC 27294; Mycobacterium tuberculosis) [µM] | IC50 (VERO cells (ATCC CRL-81)) [µM] | MIC90 (MTB H37Rv ATCC 27294) [µM] | hPXR Fold Act. (lucif) @ 6.25 μM ([3]; 6.25 μM, 24 h) [fold] | hPXR Fold Act. (lucif) @ 25 μM ([3]; 25 μM, 24 h) [fold] | IC50 (WT MTB RNAP) [µM] | hPXR Fold Act. (lucif) @ 6.25 μM [3] [fold] | hPXR Fold Act. (lucif) @ 25 μM [3] [fold] | DPX2 Viability @ 6.25 μM (DPX2 cells) [%] | DPX2 Viability @ 25 μM (DPX2 cells) [%]
CO[C@H]1/C=C/O[C@@]2(C)Oc3c(C)c(O)c4c(=O)c(c5oc6cc(N7CCN(CC(C)C)CC7)cc(OCc7cccc(CN8CCN(C(=O)Cn9ccnc9)CC8)c7)c6nc-5c4c3C2=O)NC(=O)/C(C)=C\C=C\[C@H](C)[C@H](O)[C@@H](C)[C@@H](O)[C@@H](C)[C@H](OC(C)=O)[C@@H]1C [Compound 12c, (7S,9E,11S,12R,13S,14R,15R,16R,17S,18S,19E,21Z)-2,15,17-Trihydroxy-32-{[3-({4-[2-(1H-imidazol-1-yl)acetyl]piperazin-1-yl}methyl)phenyl]methoxy}-11-methoxy-3,7,12,14,16,18,22-heptamethyl-30-[4-(2-methylpropyl)piperazin-1-yl]-6,23,37-trioxo-8,27,38-trioxa-24,34-diazahexacyclo[23.11.1.1^4,7.0^5,36.0^26,35.0^28,33]octatriaconta-1(36)2,4,9,19,21,25,28,30,32,34-undecaen-13-yl acetate] | 0.014 | 17 | 66 | > 8 | 0.12 | 0.0048 | <0.08 | < 0.02 | 107 | 95 | – | – | – | – | – | – | – | – | – | –
CO[C@H]1/C=C/O[C@@]2(C)Oc3c(C)c(O)c4c(=O)c(c5oc6cccc(OCc7ccc(CN8CCN(C(=O)Cn9ccnc9)CC8)cc7)c6nc-5c4c3C2=O)NC(=O)/C(C)=C\C=C\[C@H](C)[C@H](O)[C@@H](C)[C@@H](O)[C@@H](C)[C@H](OC(C)=O)[C@@H]1C [Compound 16b, (7S,9E,11S,12R,13S,14R,15R,16R,17S,18S,19E,21Z)-2,15,17-Trihydroxy-32-{[4-({4-[2-(1H-imidazol-1-yl)acetyl]piperazin-1-yl}methyl)phenyl]methoxy}-11-methoxy-3,7,12,14,16,18,22-heptamethyl-6,23,37-trioxo-8,27,38-trioxa-24,34-diazahexacyclo[23.11.1.1^4,7.0^5,36.0^26,35.0^28,33]octatriaconta-1(36)2,4,9,19,21,25,28,30,32,34-undecaen-13-yl acetate] | 0.005 | 24 | 160 | > 8 | 1.6 | 0.029 | 0.15 | 0.02 | 117 | 76 | – | – | – | – | – | – | – | – | – | –
CO[C@H]1/C=C/O[C@@]2(C)Oc3c(C)c(O)c4c(=O)c(c5oc6cc(N7CCN(CC(C)C)CC7)cc(OCc7ccc(CN8CCN(C(=O)Cn9ccnc9)CC8)cc7)c6nc-5c4c3C2=O)NC(=O)/C(C)=C\C=C\[C@H](C)[C@H](O)[C@@H](C)[C@@H](O)[C@@H](C)[C@H](OC(C)=O)[C@@H]1C [Compound 17c, (7S,9E,11S,12R,13S,14R,15R,16R,17S,18S,19E,21Z)-2,15,17-Trihydroxy-32-{[4-({4-[2-(1H-imidazol-1-yl)acetyl]piperazin-1-yl}methyl)phenyl]methoxy}-11-methoxy-3,7,12,14,16,18,22-heptamethyl-30-[4-(2-methylpropyl)piperazin-1-yl]-6,23,37-trioxo-8,27,38-trioxa-24,34-diazahexacyclo[23.11.1.1^4,7.0^5,36.0^26,35.0^28,33]octatriaconta-1(36)2,4,9,19,21,25,28,30,32,34-undecaen-13-yl acetate] | 0.02 | 12 | 100 | > 8 | 1.3 | 0.023 | 0.15 | 0.02 | 102 | 94 | – | – | – | – | – | – | – | – | – | –
CO[C@H]1/C=C/O[C@@]2(C)Oc3c(C)c(O)c4c(=O)c(c5oc6cc(N7CCN(CC(C)C)CC7)cc(OCc7ccc(CN8CCN(C(=O)CN9CCOCC9)CC8)cc7)c6nc-5c4c3C2=O)NC(=O)/C(C)=C\C=C\[C@H](C)[C@H](O)[C@@H](C)[C@@H](O)[C@@H](C)[C@H](OC(C)=O)[C@@H]1C [Compound 17d, (7S,9E,11S,12R,13S,14R,15R,16R,17S,18S,19E,21Z)-2,15,17-Trihydroxy-11-methoxy-3,7,12,14,16,18,22-heptamethyl-30-[4-(2-methylpropyl)piperazin-1-yl]-32-{[4-({4-[2-(morpholin-4-yl)acetyl]piperazin-1-yl}methyl)phenyl]methoxy}-6,23,37-trioxo-8,27,38-trioxa-24,34-diazahexacyclo[23.11.1.1^4,7.0^5,36.0^26,35.0^28,33]octatriaconta-1(36)2,4,9,19,21,25,28,30,32,34-undecaen-13-yl acetate] | 0.016 | 7.3 | 32 | > 8 | – | – | 0.15 | 0.02 | 104 | 84 | < 0.016 | – | – | – | – | – | – | – | – | –
CO[C@H]1/C=C/O[C@@]2(C)Oc3c(C)c(O)c4c(=O)c(c5oc6cc(N7CCN(C(=O)c8ccc(-c9ccc(C(N)=O)cc9)cc8)CC7)cc(OCc7ccc(CN8CCOCC8)cc7)c6nc-5c4c3C2=O)NC(=O)/C(C)=C\C=C\[C@H](C)[C@H](O)[C@@H](C)[C@@H](O)[C@@H](C)[C@H](OC(C)=O)[C@@H]1C [Compound 17t, (7S,9E,11S,12R,13S,14R,15R,16R,17S,18S,19E,21Z)-30-(4-{[4-(4-carbamoylphenyl)-phenyl]carbonyl}piperazin-1-yl)-2,15,17-trihydroxy-11-methoxy-3,7,12,14,16,18,22-heptamethyl-32-{[4-(morpholin-4-ylmethyl)phenyl]methoxy}-6,23,37-trioxo-8,27,38-trioxa-24,34-diazahexacyclo[23.11.1.1^4,7.0^5,36.0^26,35.0^28,33]octatriaconta-1,3,5(36)9,19,21,25,28,30,32,34-undecaen-13-yl acetate] | – | – | – | – | 0.6 | – | – | – | 100 | – | – | 55 | 0.032 | 1.3 | 2.1 | – | – | – | – | –
CO[C@H]1/C=C/O[C@@]2(C)Oc3c(C)c(O)c4c(=O)c(c5oc6cc(N7CCC(CC(=O)O)CC7)cc(N7CCC(CC(=O)O)CC7)c6nc-5c4c3C2=O)NC(=O)/C(C)=C\C=C\[C@H](C)[C@H](O)[C@@H](C)[C@@H](O)[C@@H](C)[C@H](OC(C)=O)[C@@H]1C [Compound 17v, 2-{1-[(7S,9E,11S,12R,13S,14R,15R,16R,17S,18S,19E,21Z)-13-(acetyloxy)-32-[4-(carboxymethyl)piperidin-1-yl]-2,15,17-trihydroxy-11-methoxy-3,7,12,14,16,18,22-heptamethyl-6,23,37-trioxo-8,27,38-trioxa-24,34-diazahexacyclo-[23.11.1.1^4,7.0^5,36.0^26,35.0^28,33]octatriaconta-1,3,5(36)9,19,21,25,28,30,32,34-undecaen-30-yl]piperidin-4-yl)acetic acid] | – | – | – | – | – | – | – | – | – | – | – | > 10 | – | – | – | 0.027 | 1.2 | 1.6 | 110 | 100
CO[C@H]1/C=C/O[C@@]2(C)Oc3c(C)c(O)c4c(=O)c(c5oc6cc(C)cc(N7CCN(C)CC7)c6nc-5c4c3C2=O)NC(=O)/C(C)=C\C=C\[C@H](C)[C@H](O)[C@@H](C)[C@@H](O)[C@@H](C)[C@H](OC(C)=O)[C@@H]1C [Compound 30a, (7S,9E,11S,12R,13S,14R,15R,16R,17S,18S,19E,21Z)-2,15,17-Trihydroxy-11-methoxy-3,7,12,14,16,18,22,30-octamethyl-32-(4-methylpiperazin-1-yl)-6,23,37-trioxo-8,27,38-trioxa-24,34-diazahexacyclo[23.11.1.1^4,7.0^5,36.0^26,35.0^28,33]octatriaconta-1(36)2,4,9,19,21,25,28,30,32,34-undecaen-13-yl acetate] | – | – | – | – | <0.6 | – | – | – | – | – | – | > 8 | <0.016 | – | – | – | 4.6 | 20.4 | 92 | 47
